PubChem BioAssay AID1648 (Sanford-Burnham Center for Chemical Genomics, 2009)
Calls of active or inactive are those of the source. How the calls were made is not given here.

Biological target: Serine/threonine-protein kinase mTOR (Homo sapiens) (UniProt P42345)
Assay: binders of mTOR FRB domain, biophysical, NMR (AID 1648)
Conditions: NMR binding to FRB domain, chemical shift

Serine/threonine-protein kinase mTOR (Homo sapiens), sequence (P42345 2015-2114): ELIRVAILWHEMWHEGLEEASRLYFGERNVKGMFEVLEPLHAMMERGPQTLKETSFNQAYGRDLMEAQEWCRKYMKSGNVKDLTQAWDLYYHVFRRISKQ

Cc1nn(C)c(Cl)c1S(=O)(=O)N1CCOCC1
Kd: > 4 mM (inactive)

O=C(O)C1Cc2ccccc2N1 (centres undefined)
Kd: > 4 mM (inactive)

Cn1nc(C(=O)Nc2cccnc2)c2ccccc2c1=O
Kd: > 4 mM (inactive)

OC/C=C/c1ccc(O)c(O)c1
Kd: > 4 mM (inactive)

C=C[C@H]1CN2CC[C@H]1C[C@H]2[C@H](O)c1ccnc2ccccc12
Kd: > 4 mM (inactive)

CC(=O)c1ccc2c(c1)OCCO2
Kd: > 4 mM (inactive)

CC(C)[C@@H]1CC[C@@H](C)C[C@H]1OC(=O)c1ccccc1
Kd: > 4 mM (inactive)

COC1=CC(=O)C=C(OC)C1=O
Kd: > 4 mM (inactive)

CC1=C(C(=O)Nc2ccccc2)SCCO1
Kd: > 4 mM (inactive)

CC(=O)Nc1nc(C)nc(-c2ccccc2)c1C(C)=O
Kd: > 4 mM (inactive)

Cc1cc2ncc(C(=O)Nc3ccccc3)c(C)n2n1
Kd: > 4 mM (inactive)

Cn1ccnc1SCc1cc(=O)[nH]c2ccccc12
Kd: > 4 mM (inactive)

CCCCn1c(S(=O)(=O)O)nc2ccccc21
Kd: > 4 mM (inactive)

O=C(c1nc2ncccn2n1)N1CCc2ccccc2C1
Kd: > 4 mM (inactive)

NC(=O)CN1CCC(c2nc3ccccc3[nH]2)CC1
Kd: > 4 mM (inactive)

O=C(O)CCN1CCOCC1
Kd: > 4 mM (inactive)

O=C(O)CN(CCCc1ccccc1)CC(=O)O
Kd: > 4 mM (inactive)

CC(=O)Oc1ccc(/C=C/c2cc(OC(C)=O)cc(OC(C)=O)c2)cc1
Kd: > 4 mM (inactive)

O=C1C2C3C=CC(C3)C2C(=O)N1c1ccccn1 (centres undefined)
Kd: > 4 mM (inactive)

CC(=O)Nc1ccc(N2CCOCC2)cc1
Kd: > 4 mM (inactive)

O=c1[nH]c(NCCO)nnc1Cc1ccccc1
Kd: > 4 mM (inactive)

Cc1cc[n+](-c2nc([O-])sc2C=O)cc1
Kd: > 4 mM (inactive)

Nc1nc2ccc(C(=O)O)cc2s1
Kd: > 4 mM (inactive)

O=C(O)CC1C(=O)NCCN1Cc1cccs1 (centres undefined)
Kd: > 4 mM (inactive)

COC(=O)[C@@H]1OC(=O)C2OC23[C@@]1(C)CCC1[C@@]2(C)CCC(=O)C(C)(C)C2C[C@@H](OC(C)=O)[C@]13C (some centres undefined)
Kd: > 4 mM (inactive)

Cc1cc(NC(=O)c2cccc(S(C)(=O)=O)c2)no1
Kd: > 4 mM (inactive)

O=C(c1ccco1)N1CCn2c1nc1ccccc12
Kd: > 4 mM (inactive)

O=C1Cc2ccccc2N1c1ccccc1
Kd: > 4 mM (inactive)

Cc1ccc2c(c1)CCCN2C(=O)c1c(C)noc1C
Kd: > 4 mM (inactive)

COC1(C)CCC2OC2(C)CCC2C1CC2(C)C (centres undefined)
Kd: > 4 mM (inactive)

Nc1cccc(F)c1-c1ncon1
Kd: > 4 mM (inactive)

CC(=O)O[C@H]1C[C@@H](OC(C)=O)C(C)(C)C2C[C@@H](OC(C)=O)[C@]3(C)C(CC[C@@]4(C)[C@H](c5ccoc5)OC(=O)[C@H]5O[C@]543)[C@]21C (some centres undefined)
Kd: > 4 mM (inactive)

c1cncc(-c2nnc(-c3cccnc3)nn2)c1
Kd: > 4 mM (inactive)

Cc1cc([N+](=O)[O-])cc[n+]1[O-]
Kd: > 4 mM (inactive)

COc1ccc(C(N)=O)cc1NC(C)=O
Kd: > 4 mM (inactive)

COc1ccc(NC(=O)C2CC(=O)N=C(N)S2)cc1 (centres undefined)
Kd: > 4 mM (inactive)

O=C1NC(=O)C(C2SC(=O)NC2=O)S1 (centres undefined)
Kd: > 4 mM (inactive)

COc1cccc(NC(=O)c2cnn(C)c2Cl)c1
Kd: > 4 mM (inactive)

Nc1ccc(-n2cccc2)cc1
Kd: > 4 mM (inactive)

Cc1ccn(S(=O)(=O)c2ccc(F)cc2)n1
Kd: > 4 mM (inactive)

CSc1nc(C)cc(Oc2ccc(=O)n(C)n2)n1
Kd: > 4 mM (inactive)

NC1=NC(=O)/C(=C/c2cccs2)S1
Kd: > 4 mM (inactive)

Cc1cc(C)n(CCC(=O)O)n1
Kd: > 4 mM (inactive)

CCCCCCCCCCCCCc1ccco1
Kd: > 4 mM (inactive)

CC1(C)CC2C1CCC1(C)OC1CCC2(C)O (centres undefined)
Kd: > 4 mM (inactive)

COc1ccc(/C=C2/N=C(N)SC2=O)cc1
Kd: > 4 mM (inactive)

CC1=C/C(=C\c2c(O)[nH]c(=O)[nH]c2=O)C(C)=N1
Kd: > 4 mM (inactive)

NC(c1ccccc1)c1ccccn1 (centres undefined)
Kd: > 4 mM (inactive)

Nc1nsc(-c2ccccc2)n1
Kd: > 4 mM (inactive)

CCSc1nnc2[nH]c(=O)cc(C)n12
Kd: > 4 mM (inactive)

NC(=O)c1cc(N)cc(C(N)=O)c1
Kd: > 4 mM (inactive)

Oc1cc(O)c2c(c1)O[C@H](c1ccc(O)c(O)c1)[C@H](O)C2
Kd: > 4 mM (inactive)

NCC1COc2ccccc2O1 (centres undefined)
Kd: > 4 mM (inactive)

CC(=O)Nc1nnc(-c2ccccc2S(C)(=O)=O)o1
Kd: > 4 mM (inactive)

C=CCCCCCCCCCCCC(O)CC(O)CO (centres undefined) (tested in a mixture with another compound)
Kd: > 4 mM (inactive)

Nc1ccc2c(c1)CCCC2=O
Kd: > 4 mM (inactive)

O=S(=O)(Nc1cccnc1Cl)c1ccccc1
Kd: > 4 mM (inactive)

O=c1[nH]nnc2sc3c(c12)CCCC3
Kd: > 4 mM (inactive)

CN(C)S(=O)(=O)Nc1ccc(Br)cc1F
Kd: > 4 mM (inactive)

Cc1nc2cc(Cl)ccc2n1CCO
Kd: > 4 mM (inactive)

Cc1cc(=O)c2ccccc2n1CC(N)=O
Kd: > 4 mM (inactive)

Nc1c(Nc2ccccc2)c2ccccc2oc1=O
Kd: > 4 mM (inactive)

COc1ccccc1-c1noc(-c2ccncc2)n1
Kd: > 4 mM (inactive)

OCc1ncoc1-c1ccccc1
Kd: > 4 mM (inactive)

COC1=C(OC)C(=O)C(C/C=C(\C)CC/C=C(\C)CC/C=C(\C)CC/C=C(/C)CC/C=C(\C)CC/C=C(\C)CC/C=C(\C)CC/C=C(\C)CC/C=C(\C)CCC=C(C)C)=C(C)C1=O
Kd: > 4 mM (inactive)

Cn1nc(C(=O)NCc2cccnc2)c2ccccc2c1=O
Kd: > 4 mM (inactive)

O=C(O)/C=C/C=C/c1ccccc1
Kd: > 4 mM (inactive)

O=C(O)c1ccc(N2CCOCC2)cc1
Kd: > 4 mM (inactive)

COc1ccc2c(c1)c1n[nH]c(=S)nc1n2C
Kd: > 4 mM (inactive)

Nc1ccc(-c2cn3c(n2)SCC3)cc1
Kd: > 4 mM (inactive)

CCN1CCC(=NO)CC1
Kd: > 4 mM (inactive)

Cc1scc(C(=O)Nn2cnnc2)c1-c1ccccc1
Kd: > 4 mM (inactive)

C/C1=C\CCC(=O)C2CC(C)(C)C2CC1 (centres undefined)
Kd: > 4 mM (inactive)

Cc1ccc2cc(N)ccc2n1
Kd: > 4 mM (inactive)

CC(=O)Oc1c2c(c(CC=C(C)C)c3c1C(=O)C1=C[C@@H]4CC5C(C)(C)OC(C/C=C(\C)C(=O)O)(C4=O)[C@@]15O3)OC(C)(CCC=C(C)C)C=C2 (some centres undefined)
Kd: > 4 mM (inactive)

CC(C)=CCC/C(C)=C/CC/C(C)=C/CC/C(C)=C/CC/C(C)=C/CC/C(C)=C/CC/C(C)=C/CC/C(C)=C/CC/C(C)=C/CO
Kd: > 4 mM (inactive)

Cc1nn2c3ccccc3nc2n(Cc2ccccc2)c1=O
Kd: > 4 mM (inactive)

S=C(Nc1ccccc1)Nc1nncs1
Kd: > 4 mM (inactive)

O=c1ccc2cc(O)c(O)cc2o1
Kd: > 4 mM (inactive)

O=c1ccc2ccc(O)cc2o1
Kd: > 4 mM (inactive)

O=C(c1ccco1)N1CCN(c2ccc(Cl)cc2)CC1
Kd: > 4 mM (inactive)

NC1=NC(=O)/C(=C\c2ccccc2)S1
Kd: > 4 mM (inactive)

Nc1ccc(C(=O)NCC2CCCO2)cc1 (centres undefined)
Kd: > 4 mM (inactive)

Cc1cc(NC(=O)CSc2ccnc(=O)[nH]2)no1
Kd: > 4 mM (inactive)

O=C(Nc1ccon1)c1ccc(Br)o1
Kd: > 4 mM (inactive)

O=C1CSC(=S)N1N1C(=O)C2C3C=CC(C3)C2C1=O (centres undefined)
Kd: > 4 mM (inactive)

NC(=O)c1ccccc1NC(=O)C1CCCO1 (centres undefined)
Kd: > 4 mM (inactive)

O=C1NC(=S)N/C1=C\c1cccnc1
Kd: > 4 mM (inactive)

NC(=O)c1ccc(C(N)=O)c(-c2ccccc2)c1
Kd: > 4 mM (inactive)

O=C(NCc1ccccn1)c1ccccc1Cl
Kd: > 4 mM (inactive)

O=Cc1c(N2CCOCC2)nc2ccccn2c1=O
Kd: > 4 mM (inactive)

COC(=O)c1nc(-c2ccccc2)oc1N(C)C
Kd: > 4 mM (inactive)

CN(C)Cc1nc2c([nH]1)c(=O)[nH]c(=O)n2C
Kd: > 4 mM (inactive)

O=C1OCCC1Sc1nc2ccccc2c(=O)[nH]1 (centres undefined)
Kd: > 4 mM (inactive)

O=C(CSc1nc2ccccc2[nH]1)N1CCCCC1
Kd: > 4 mM (inactive)

COc1cc(OC)c(-c2nc3cnccc3n2C)cc1OC
Kd: > 4 mM (inactive)

O=C1CSC(c2ccccc2)N1 (centres undefined)
Kd: > 4 mM (inactive)

O=C(CN1C(=O)c2cccc3cccc(c23)C1=O)NO
Kd: > 4 mM (inactive)

CC(=O)O[C@H]1C(=O)[C@@]2(C)C([C@H](OC(=O)c3ccccc3)[C@]3(O)C[C@H](OC(=O)[C@H](O)[C@@H](NC(=O)c4ccccc4)c4ccccc4)C(C)=C1C3(C)C)[C@]1(OC(C)=O)CO[C@@H]1C[C@@H]2O (some centres undefined)
Kd: > 4 mM (inactive)

COc1cc(CNC(=O)CCCC/C=C/C(C)C)ccc1O
Kd: > 4 mM (inactive)

O=C(O[C@@H]1Cc2c(O)cc(O)cc2O[C@@H]1c1cc(O)c(O)c(O)c1-c1c([C@H]2Oc3cc(O)cc(O)c3C[C@H]2O)cc(O)c(O)c1O)c1cc(O)c(O)c(O)c1
Kd: > 4 mM (inactive)

NC(=O)c1ccc(Cl)c(N2C(=O)CCC2=O)c1
Kd: > 4 mM (inactive)

CC(=O)NCCc1cc2ccc(C)c(C)c2[nH]c1=O
Kd: > 4 mM (inactive)

Cn1c(=O)c2c(ncn2C)n(C)c1=O
Kd: > 4 mM (inactive)

Cc1cc(O)c(C=O)c(O)c1C(=O)O
Kd: > 4 mM (inactive)

O=C(O)c1ccc2ncccc2c1
Kd: > 4 mM (inactive)

CC(C)=CC(=O)Nc1ccc(S(N)(=O)=O)cc1
Kd: > 4 mM (inactive)

OC[C@H]1O[C@@H](n2cnc3c(NCc4ccco4)ncnc32)[C@H](O)[C@@H]1O
Kd: > 4 mM (inactive)

Cc1nn2c(-c3ccco3)nnc2c2ccccc12
Kd: > 4 mM (inactive)

O=C(c1nc2ccccc2s1)N1CCSCC1
Kd: > 4 mM (inactive)

CC(=O)NC(C)C12CC3CC(CC(C(=O)O)(C3)C1)C2 (centres undefined)
Kd: > 4 mM (inactive)

CC(=O)O[C@@H]1CC2C(C)(C)C(=O)[C@@H]3O[C@@H]3[C@]2(C)C2CC[C@]3(C)C(=CC(=O)O[C@H]3c3ccoc3)[C@@]21C (some centres undefined)
Kd: > 4 mM (inactive)

CCOc1ccc(C)cc1S(=O)(=O)n1ccc(C)n1
Kd: > 4 mM (inactive)

C(=N\n1cnnc1)/c1cccs1
Kd: > 4 mM (inactive)
